In paper PMC12703677, “Discovery of a Copper-Binding Carbohydrate-Binding Module Regulating the Activity of Lytic Polysaccharide Monooxygenases” (Journal of the American Chemical Society, 2025):

Columns and labels:
[1] = target: T1, ScLPMO10C (ScLPMO10C^(MMH)) (Streptomyces coelicolor, UniProt Q9RJY2); test: fluorescence stopped-flow, single-turnover reduction of LPMO-Cu(II); assay type: biochemical; details: reductant; 50 mM sodium phosphate pH 6.0, 25 °C, anaerobic, no polysaccharide; second-order rate constant only, no Km
T1 construct: gene celS2; full-length mature AA10-linker-CBM2, native signal peptide replaced by SmLPMO10A signal peptide (cleaved; N-terminal His35), E. coli periplasm, untagged, Cu(II)-loaded

[2] = target: T2, ScAA10 (CD; catalytic domain of ScLPMO10C) (Streptomyces coelicolor, UniProt Q9RJY2); test: as above; assay type: biochemical; details: reductant; 50 mM sodium phosphate pH 6.0, 25 °C, anaerobic, no polysaccharide; second-order rate constant only, no Km
T2 construct: gene celS2; N-terminal His35), SmLPMO10A signal peptide cleaved, E. coli periplasm, untagged, Cu(II)-loaded
T2 sequence (Q9RJY2 entry or part of it): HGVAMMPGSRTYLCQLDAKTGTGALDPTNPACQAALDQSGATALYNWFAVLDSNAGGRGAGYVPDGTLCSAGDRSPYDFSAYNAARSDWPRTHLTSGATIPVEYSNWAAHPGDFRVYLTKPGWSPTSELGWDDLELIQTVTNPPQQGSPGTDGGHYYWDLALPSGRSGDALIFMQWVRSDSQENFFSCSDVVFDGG

T1 sequence (Q9RJY2 entry or part of it): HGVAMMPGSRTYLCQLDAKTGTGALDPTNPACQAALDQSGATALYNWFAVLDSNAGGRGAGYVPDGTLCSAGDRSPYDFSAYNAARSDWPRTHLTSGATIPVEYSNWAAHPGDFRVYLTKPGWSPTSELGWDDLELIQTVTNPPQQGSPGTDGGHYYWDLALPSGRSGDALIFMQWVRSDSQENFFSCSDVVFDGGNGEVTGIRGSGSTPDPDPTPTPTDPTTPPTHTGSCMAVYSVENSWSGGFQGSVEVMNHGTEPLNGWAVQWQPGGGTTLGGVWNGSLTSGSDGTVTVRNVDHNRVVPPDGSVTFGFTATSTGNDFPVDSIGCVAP

Structure (SMILES): O=C1O[C@H]([C@@H](O)CO)C(O)=C1O [ascorbic acid]
- k AscA [1]: the two variants exhibited identical reduction rates
- k AscA [2]: the two variants exhibited identical reduction rates
